Experimental data published in PubChem BioAssay AID2060883 (Molecular Pharmacology Branch, DTP, NCI, 2025).
Where “and” joins values, the source holds several entries; their conditions need not be identical. Equal entries are not always repeated.

System: 843782-103-R-J1-PDC complex spheroid viability
Assay: Anticancer human tumor 843782-103-R-J1-PDC patient-derived lung adenocarcinoma cell line growth inhibition [RAS]
Settings: for viability, T/C: stronger effect = lower value
Summary of the method: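 Tumour cells grown as complex spheroids with HUVEC endothelial cells and mesenchymal stem cells, treated with RAS pathway inhibitor combinations. Each agent spans half-log steps from near clinical Cmax, or 10 microM where Cmax is unknown.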

[1] = curve of first compound, second compound 0.00316 µM
[2] = curve of first compound, second compound 0.01 µM
[3] = curve of first compound, second compound 0.0316 µM
[4] = curve of first compound, second compound 0.1 µM
[5] = curve of first compound, second compound 0.316 µM
[6] = curve of first compound, second compound 1 µM
[7] = second compound 0.00316 µM, first compound 0.0316 µM
[8] = second compound 0.00316 µM, first compound 0.1 µM
[9] = second compound 0.00316 µM, first compound 0.316 µM
[10] = second compound 0.00316 µM, first compound 1 µM
[11] = second compound 0.01 µM, first compound 0.0316 µM
[12] = second compound 0.01 µM, first compound 0.1 µM
[13] = second compound 0.01 µM, first compound 0.316 µM
[14] = second compound 0.01 µM, first compound 1 µM
[15] = second compound 0.0316 µM, first compound 0.0316 µM
[16] = second compound 0.0316 µM, first compound 0.1 µM
[17] = second compound 0.0316 µM, first compound 0.316 µM
[18] = second compound 0.0316 µM, first compound 1 µM
[19] = second compound 0.1 µM, first compound 0.0316 µM
[20] = second compound 0.1 µM, first compound 0.1 µM
[21] = second compound 0.1 µM, first compound 0.316 µM
[22] = second compound 0.1 µM, first compound 1 µM
[23] = second compound 0.316 µM, first compound 0.0316 µM
[24] = second compound 0.316 µM, first compound 0.1 µM
[25] = second compound 0.316 µM, first compound 0.316 µM
[26] = second compound 0.316 µM, first compound 1 µM
[27] = second compound 1 µM, first compound 0.0316 µM
[28] = second compound 1 µM, first compound 0.1 µM
[29] = second compound 1 µM, first compound 0.316 µM
[30] = second compound 1 µM, first compound 1 µM
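Further: viability read after seven days of compound exposure.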

C[C@@H](NC(=O)c1ncnc(N)c1Cl)c1ncc(C(=O)Nc2cc(C(F)(F)F)c(Cl)cn2)s1 + C=CC(=O)N1CCN(c2nc(OCC3CCCN3C)nc3c(F)c(-c4nc(N)cc(C)c4C(F)(F)F)c(Cl)cc23)C(C)C1
IC50 [1]: > 10000 nM | IC50 [2]: > 10000 nM | IC50 [3]: > 10000 nM | IC50 [4]: > 10000 nM | IC50 [5]: > 10000 nM | IC50 [6]: > 10000 nM | viability, T/C [7]: 92.2% | viability, T/C [8]: 84.3% | viability, T/C [9]: 92.1% | viability, T/C [10]: 91.4% | viability, T/C (second compound 0.00316 µM, first compound 3.16 µM): 106% | viability, T/C (second compound 0.00316 µM, first compound 10 µM): 84.9% | viability, T/C [11]: 85.2% | viability, T/C [12]: 84.2% | viability, T/C [13]: 88.4% | viability, T/C [14]: 88.5% | viability, T/C (second compound 0.01 µM, first compound 3.16 µM): 91.9% | viability, T/C (second compound 0.01 µM, first compound 10 µM): 91.8% | viability, T/C [15]: 87.5% | viability, T/C [16]: 79.8% | viability, T/C [17]: 87% | viability, T/C [18]: 84.9% | viability, T/C (second compound 0.0316 µM, first compound 3.16 µM): 94.5% | viability, T/C (second compound 0.0316 µM, first compound 10 µM): 89.1% | viability, T/C [19]: 90.7% | viability, T/C [20]: 83.7% | viability, T/C [21]: 87.3% | viability, T/C [22]: 90.8% | viability, T/C (second compound 0.1 µM, first compound 3.16 µM): 91.5% | viability, T/C (second compound 0.1 µM, first compound 10 µM): 88.7% | viability, T/C [23]: 88.5% | viability, T/C [24]: 87.9% | viability, T/C [25]: 90.4% | viability, T/C [26]: 86.6% | viability, T/C (second compound 0.316 µM, first compound 3.16 µM): 95.7% | viability, T/C (second compound 0.316 µM, first compound 10 µM): 91.8% | viability, T/C [27]: 82.7% | viability, T/C [28]: 92.2% | viability, T/C [29]: 97% | viability, T/C [30]: 85.3% | viability, T/C (second compound 1 µM, first compound 3.16 µM): 92.5% | viability, T/C (second compound 1 µM, first compound 10 µM): 87.3%

CCC(CC)c1cc(NC2CCC(N)C2)n2nccc2n1 (stereo not given)
viability, T/C (compound 0.0316 µM): 114% and 109% and 101% (2×) | viability, T/C (compound 0.1 µM): 107% [middle of 4 runs] | viability, T/C (compound 0.316 µM): 101% [middle of 4 runs] | viability, T/C (compound 3.16 µM): 2.11% [middle of 4 runs] | viability, T/C (compound 10 µM): 0.82% [middle of 4 runs] | IC50 (curve of compound): 1.78 µM [middle of 4 runs]

CCN1CCN(Cc2ccc(Nc3ncc(F)c(-c4cc(F)c5nc(C)n(C(C)C)c5c4)n3)nc2)CC1 + C=CC(=O)N1CCN(c2nc(OCC3CCCN3C)nc3c(F)c(-c4nc(N)cc(C)c4C(F)(F)F)c(Cl)cc23)C(C)C1
IC50 [1]: 988 nM | IC50 [2]: 471 nM | IC50 [3]: 697 nM | IC50 [4]: 764 nM | IC50 [5]: > 1000 nM | IC50 [6]: 836 nM | viability, T/C (second compound 0.00316 µM, first compound 0.00316 µM): 86.1% | viability, T/C (second compound 0.00316 µM, first compound 0.01 µM): 93.4% | viability, T/C [7]: 88.5% | viability, T/C [8]: 86.3% | viability, T/C [9]: 68.1% | viability, T/C [10]: 49.8% | viability, T/C (second compound 0.01 µM, first compound 0.00316 µM): 88.4% | viability, T/C (second compound 0.01 µM, first compound 0.01 µM): 86.6% | viability, T/C [11]: 86.3% | viability, T/C [12]: 74.9% | viability, T/C [13]: 53.8% | viability, T/C [14]: 43% | viability, T/C (second compound 0.0316 µM, first compound 0.00316 µM): 83.1% | viability, T/C (second compound 0.0316 µM, first compound 0.01 µM): 83.7% | viability, T/C [15]: 81.4% | viability, T/C [16]: 79.8% | viability, T/C [17]: 65.5% | viability, T/C [18]: 42.2% | viability, T/C (second compound 0.1 µM, first compound 0.00316 µM): 89.5% | viability, T/C (second compound 0.1 µM, first compound 0.01 µM): 81% | viability, T/C [19]: 81.5% | viability, T/C [20]: 80% | viability, T/C [21]: 60.7% | viability, T/C [22]: 46.7% | viability, T/C (second compound 0.316 µM, first compound 0.00316 µM): 88.9% | viability, T/C (second compound 0.316 µM, first compound 0.01 µM): 86% | viability, T/C [23]: 83.7% | viability, T/C [24]: 71.9% | viability, T/C [25]: 62.5% | viability, T/C [26]: 57.7% | viability, T/C (second compound 1 µM, first compound 0.00316 µM): 91.1% | viability, T/C (second compound 1 µM, first compound 0.01 µM): 83.2% | viability, T/C [27]: 86.7% | viability, T/C [28]: 78.3% | viability, T/C [29]: 63.5% | viability, T/C [30]: 47.5%
